Reference: ChEMBL document CHEMBL3988442, “University of Dundee, Small-Polar-MMV Screening Library” (2021)

How the values were obtained:
[1] = microbe, parasite or virus in culture; conditions: Mycobacterium tuberculosis, 72 h, read-out: pIC50 (converted)
[2] = microbe, parasite or virus in culture; conditions: Mycobacterium tuberculosis, 96 h, read-out: pIC50 (converted)

SMILES | IC50 [1] [µM] | IC50 [2] [µM]
CN(C)S(=O)(=O)N1CCC(Oc2ccccc2Cl)CC1 | 343 | 232
CCNc1nnc(SC(C)C)s1 | 120 | 54.2
O=C(NCCSC(F)(F)F)Nc1cccc2[nH]nnc12 | 286 | 265
O=C(CCc1ccc(Br)cc1)NCCc1nnc[nH]1 | > 50.1 | > 50.1
O=C1CCC2(CNC(=O)C3CC3)CCCC=C2N1 (configuration not stated) | > 501 | > 501
COc1ccc(CN2CCOC[C@H](OCCC(C)C)C2)cc1 | > 50.1 | > 50.1
Clc1ccc(N2CCN(Cc3ncc[nH]3)CC2)nc1 | 311 | > 501
CCOC(=O)N1CCN(C(=O)Cc2cccs2)CC1 | 371 | > 501
N#Cc1ccc(N2CCC3(CC2)COCCN3Cc2cccnc2)cc1 | > 50.1 | > 50.1
Nc1cc(N2CCCC(CO)(Cc3ccccc3F)C2)nc(N)n1 (configuration not stated) | 47.1 | 45.3
Cc1nn(C)cc1S(=O)(=O)NCC(c1ccccc1)N1CCCCCC1 (configuration not stated) | > 50.1 | > 50.1
COc1cc(C)sc1C(=O)NCCNc1ccccc1 | 5.82 | 4.3
Cc1nccn1C1CCCN(C(=O)c2ccc(N3CCCC3)nn2)C1 (configuration not stated) | > 50.1 | > 50.1
CSc1ccc(C(CN)N(C)C)cc1 (configuration not stated) | 215 | 319
O=C(NCCc1cccnc1)c1cc(C2CC2)on1 | > 501 | > 501
CN(C1CCCCC1)S(=O)(=O)NC1CCCCNC1=O (configuration not stated) | > 501 | > 501
COCC1CCN(C(=O)c2cc(C3CC3)on2)CC1 | > 501 | 26.5
Cc1ccc(C2CCCN2Cc2nc(-c3ccco3)no2)cc1 (configuration not stated) | 21.8 | 18.7
CCN1CCN(Cc2cc(C(C)=O)ccc2OC)CC1 | 367 | > 501
CCC1CN(S(C)(=O)=O)c2ccccc2O1 (configuration not stated) | 164 | > 501
CCCNC(=O)c1ccc2c(c1)NC(=O)C(C)S2 (configuration not stated) | 406 | > 501
CCC(C)c1cc(C(=O)Nc2ncccc2O)on1 (configuration not stated) | 178 | 268
Nc1nnc(SCC(=O)NCCc2cccc(Cl)c2)s1 | 287 | > 501
O=S(=O)(CCNc1cncc(Cl)n1)N1CCSCC1 | 252 | 215
CCNc1ncc(C(=O)N2CCOC(CCCC(C)C)C2)cn1 (configuration not stated) | > 50.1 | 43
O=c1c2cc3c(cc2nnn1Cc1ccccc1Cl)OCCO3 | > 50.1 | > 50.1

SMILES | IC50 [1] [µM] | IC50 [2] [µM]
CC(C)N(CCNc1nc(C2CCCC2)nc2c1cnn2C)C(C)C | 20.6 | 18.7
CSCc1cc(F)ccc1CNC(=O)c1cn[nH]c1C | > 501 | > 501
OC1CCN(Cc2ccc3c(c2)CCC3)C1 (configuration not stated) | 213 | > 501
CCNC(=O)CNc1cc(C)c(Cl)cc1OC | 135 | > 501
O=C(c1ccc(Br)o1)N1CCN(Cc2ccco2)CC1 | 97.2 | 92
CC(C)CC(C)Oc1cc(CN)ccn1 (configuration not stated) | > 501 | > 501
O=C(CSc1cnn[nH]1)Nc1ccc(Cl)cn1 | 99.4 | > 501
Cc1noc(COCC(=O)N2CCCCC2c2nccs2)n1 (configuration not stated) | > 50.1 | > 50.1
O=C(c1cc(C2CC2)on1)N1CCC(Oc2ncccc2Cl)CC1 | 48.7 | 24.9
CC(=O)NCC(Cc1cccc(F)c1)n1cccc1 (configuration not stated) | > 50.1 | 42.5
CC(O)CNCCNCc1ccc(-c2ccccc2)o1 (configuration not stated) | 275 | 113
Brc1cncc(NCc2ncc[nH]2)c1 | 475 | > 501
COC(=O)C(NC(=O)c1ccc(N(C)C)nc1)c1ccccc1 (configuration not stated) | 33.2 | 10.2
COc1cc(Oc2ncccc2C(F)(F)F)ccc1CN1CCCC1 | > 50.1 | 21
Cc1cc(S(=O)(=O)NC(CN)C2CC2)c(F)cc1F (configuration not stated) | > 501 | 18.9
O=S(=O)(NCCNc1ccc(-n2cccc2)nn1)c1cccs1 | 14 | 13.4
FC1(F)CCNCC12CCN(c1ncccn1)C2 (configuration not stated) | > 50.1 | > 50.1
Cc1cc2n(n1)CC(CNC1CCN(C3CC3)CC1)CN2 (configuration not stated) | > 50.1 | > 50.1
O=C1COC2(CCN(c3ccccn3)CC2)CN1 | > 50.1 | > 50.1
CN1CCOC[C@H]1c1nc(-c2cccnc2)c[nH]1 | > 50.1 | > 50.1
Cc1ccc(C(C)(C)CN(C)C(=O)CCN)cc1 | 64.1 | > 501
CCn1nc(C)c2nc(C)nc(NCCc3ccccc3)c21 | 32.5 | > 50.1
Cc1nc(C(=O)NCCN2CCCC2)c(C)s1 | 308 | > 501
Cc1cc(C2CCC2)nc(N2CCNC(=O)C2)n1 | 119 | 44.3
O=C(Nc1ccccn1)c1csc(NC2CCCC2)n1 | 46.7 | 26.1
CC(=O)NCCCNCc1cccc(C#N)c1 | > 501 | > 501

SMILES | IC50 [1] [µM] | IC50 [2] [µM]
CN(C)CCOc1ccccc1CN | > 501 | > 501
COCCOC1CCN(c2cccc(C)n2)CC1 | 245 | 366
CN1CCOC(CNCCOc2cccc(C#N)c2)C1 (configuration not stated) | > 50.1 | > 50.1
CN(CCc1ccccc1)CCS(=O)(=O)CCC(N)=O | 442 | 175
CCc1cccc2c1OCCC2N (configuration not stated) | > 501 | > 501
COC(=O)N1CC(NC(=O)c2cc(C(C)=O)c[nH]2)C1 | > 501 | > 501
COC(=O)CS(=O)(=O)c1ccc(C)c(Cl)c1 | 249 | > 501
CCOc1ccc(CN2CCc3nc4ccsc4c(=O)n3CC2)cc1 | 37.8 | 16.3
COc1cc(C(=O)NCCc2ccc(Cl)cc2)on1 | 4.56 | > 50.1
Cc1ccc(NC(=O)C(C)N2CCC(O)CC2)cc1F (configuration not stated) | 200 | 284
Clc1ccc(COCC2CCN(Cc3ccccn3)CC2)cc1 | 26.2 | 26.8
CCC1(CC)CCCN(C(=O)CS(=O)(=O)CC)CC1 | 72.7 | 50.9
CSc1cccc(N(C)C(=O)C(N)c2ccccc2)c1 (configuration not stated) | 233 | > 501
O=C(NCC1CC1)c1nnc2ccc(Cl)cc2n1 | 5.59 | 11.4
CC(C)Sc1nc(-c2ccccn2)no1 | 320 | 312
OC1CCN(Cc2cc(Cl)c3c(c2)OCCO3)CC1 | > 501 | > 501
CCC(C(=O)Nc1cc2c(cc1C)OCO2)N(C)C (configuration not stated) | > 501 | > 501
CC(C)c1cc(C(=O)N2CC(c3ccccn3)C2)no1 | 70.5 | 60.5
FC(F)(F)c1cccc(NCc2cccnc2)n1 | 85.5 | 275
N#Cc1cnc2cc(F)cc(F)c2c1NC1CCN(CC(N)=O)CC1 | > 50.1 | > 50.1
O=C(O)[C@@H]1CN(Cc2ccc(-c3cc[nH]n3)s2)C[C@H]1C1CC1 | > 50.1 | > 50.1
COCCN1CCCC(Nc2ccc(Cl)cn2)C1 (configuration not stated) | 145 | 172
CNCCCNC(=O)CCc1ccc(F)cc1 | > 501 | > 501
N#Cc1ccc(NCCOc2ccccc2)nc1 | 95.3 | 48.4
